The results in this text go back to patent publication US11292785B2, “Nitrogen-containing benzoheterocycle compound comprising carboxylic acid group, preparation method and use thereof” (Sichuan Kelun-Biotech Biopharmaceutical Co., Ltd., priority 2018, dated 2022).

Like-named read-outs stand apart in the source and are kept apart here.

For one series, the target named is T1, CYP 3A4T (Homo sapiens, UniProt P08684).
T1 construct: from tissue; host or cells: human liver microsomes
As to the kind of experiment: CYP 3A4T inhibition test in human liver microsomes (probe testosterone). Format: in vitro ADME. The settings on record: probe substrate testosterone, read-out: CYP 3A4T (μM), half inhibition concentration (IC50). The protocol:
Probe substrate: Testosterone, European Pharmacopoeia (EP) Reference Standard, Sigma-Aldrich, T0100000.
Positive control: Ketoconazole, Dingdang Chemical, DTYC 0516-17.
(§1) A probe substrate (50 μl), PBS (49 μl) and a test compound in different concentrations (0.05 μM, 0.15 μM, 0.5 μM, 1.5 μM, 5 μM, 15 μM, 50 μM) or a positive control (1 μl) were mixed with human liver microsomes (HLM, 50 μl) to give 150 μl of a mixed liquid, which was subjected to pre-incubation (37° C.) for 5 min, then added with NADPH (50 μl) and incubated for 30 min. The reaction was quenched by adding 200 μl of glacial acetonitrile. An appropriate volume of an internal standard substance was added, and after vortex treatment and centrifugation, the supernatant was obtained.
(§2) The detection was performed by using LC-MS/MS. The mass spectrometer was API 5500, the liquid chromatograph was Waters ACQUITY UPLC I-CLASS system. The chromatographic column was Hypersil GOLD C18, 1.9 μm particle size, 50×2.1 mm; mobile phase A: water+0.1% formic acid, mobile phase B: acetonitrile; flow rate: 0.4 ml/min, column temperature: 40° C. The ion source as used was ESI source positive ion mode, and the scanning mode was Multiple Reaction Monitoring (MRM).
(§3) By using solvent group (DMSO) as negative control, the concentrations of the main metabolite converted from the probe substrate in the case of different concentrations of the test compound were measured, to determine the half inhibition concentration of the compound (IC50).
In general terms: Liver microsomes are a subcellular fraction often used to study metabolism.

In the next series the target is T2, CYP 3A4M (Homo sapiens, UniProt P08684).
T2 construct: from tissue; host or cells: human liver microsomes
The series can be described thus: CYP 3A4M inhibition test in human liver microsomes (probe midazolam). Format: in vitro ADME. Conditions: probe substrate midazolam, read-out: CYP 3A4M (μM), half inhibition concentration (IC50). On the procedure:
Probe substrate: Midazolam, National Institute of Control of Pharmaceutical & Biological Products, 171265.
Positive control: Ketoconazole, purchased from Dingdang Chemical, DTYC 0516-17.
as §1, §2, §3

Series [1] is described as follows: Rat pharmacokinetic (PK) studies, plasma and liver. Format: in vivo. Conditions: male SD rats, p.o. 5 mg/kg; for AUC(0-t) / Cmax / bioavailability / half-life / Kp: rat, po; for Kp: male, SD, liver relative to plasma, 5 mg/kg. On the procedure:
The test compound was administered intragastrically (p.o.) to male SD rats at a dose of 5 mg/kg. The solvent system was 0.5% MC during the p.o. administration. After p.o. administration, blood was collected for PK studies at 5 min, 15 min, 30 min, 1 h, 2 h, 4 h, 6 h, 8 h, and 24 h. After p.o. administration, liver tissues were collected at 15 min, 1 h, 4 h, 8 h and 24 h, and the liver tissue sample, after being subjected to protein precipitation treatment, was analyzed by a LC-MS/MS. The mass spectrometer was API 5500, and the liquid chromatograph was Waters ACQUITY I CLASS system: chromatographic column: Agela ASB C18 column (2.1 mm×50 mm, 1.9 μm); mobile phase A: water+0.1% formic acid, mobile phase B: acetonitrile; flow rate: 0.4 mL/min, column temperature: 40° C. The ion source as used was ESI source positive ion mode, and the scanning mode was Multiple Reaction Monitoring (MRM).

Series [2] addresses T3, hERG potassium ion channels (Homo sapiens, UniProt Q12809).
T3 construct: expressed in transfected cells; host or cells: HEK293
As to the kind of experiment: hERG inhibition test, manual patch clamp, HEK293 cells over-expressing hERG. Format: cell-based. The settings on record: tested at 1 μM and 10 μM. The protocol:
Different concentrations (1 μM and 10 μM) of the test compound and 30 μM positive control Quinidine were formulated. HEK293 cells over-expressing hERG potassium ion channels were cultured in 5% CO2 incubator at 37° C. When the density of the cells reaches 80% of the Petri dish, the cells was washed with phosphate buffer solution (PBS), followed by digestion with Trypsin/EDTA for 2-3 minutes. The digestion was terminated by adding cell culture medium, then the solution was transferred and centrifuged to remove the supernatant, and added with cell culture medium (DMEM, 15% fetal bovine serum and 1% 100×Penicillin-Streptomycin). After uniformly mixing, the cells were dripped onto a circular slide and cultured in a Petri dish to obtain the test cells.
Channel current was recorded by applying electrophysiological manual patch clamp in a whole-cell recording mode: extracellular fluid was perfused until the current was stable, after the peak value of the tail current (control current value) was recorded, the extracellular fluid containing different concentrations of the test compound was perfused, continuously recording was conducted until the inhibition effect of the medicine on the hERG current reach stable, and the peak value of the tail current (current value after drug administration) was recorded.

The target of the next series is T4, CYP 2D6 (Homo sapiens, UniProt P10635).
T4 construct: from tissue; host or cells: human liver microsomes
As to the kind of experiment: CYP 2D6 inhibition test in human liver microsomes (probe dextromethorphan). Format: in vitro ADME. The settings on record: probe substrate dextromethorphan, read-out: CYP 2D6 (μM), half inhibition concentration (IC50). The protocol:
Probe substrate: Dextromethorpha, Beijing Jinbao, 100201.
Positive control: Quinidine, Damas-bata, P1176507.
as §1, §2, §3

The target in another series is T5, CYP 1A2 (Homo sapiens, UniProt P05177).
T5 construct: from tissue; host or cells: human liver microsomes
T5 sequence (P05177 1-516): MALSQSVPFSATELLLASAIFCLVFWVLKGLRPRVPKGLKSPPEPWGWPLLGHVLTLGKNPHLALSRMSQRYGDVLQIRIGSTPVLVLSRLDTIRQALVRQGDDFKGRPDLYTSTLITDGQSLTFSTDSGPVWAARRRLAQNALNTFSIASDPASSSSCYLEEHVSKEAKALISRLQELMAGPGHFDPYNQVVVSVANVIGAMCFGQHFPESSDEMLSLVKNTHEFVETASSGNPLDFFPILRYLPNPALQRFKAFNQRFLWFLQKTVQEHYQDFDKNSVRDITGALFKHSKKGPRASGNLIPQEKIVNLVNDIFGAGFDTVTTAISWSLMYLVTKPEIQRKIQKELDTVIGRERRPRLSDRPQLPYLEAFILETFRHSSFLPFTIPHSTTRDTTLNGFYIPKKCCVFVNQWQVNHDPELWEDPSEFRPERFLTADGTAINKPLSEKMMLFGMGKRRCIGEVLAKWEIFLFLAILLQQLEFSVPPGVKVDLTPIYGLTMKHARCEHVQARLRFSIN
As to the kind of experiment: CYP 1A2 inhibition test in human liver microsomes (probe phenacetin). The series is classed as in vitro ADME. The settings on record: probe substrate phenacetin, read-out: CYP 1A2 (μM), half inhibition concentration (IC50). The protocol: Probe substrate: Phenacetin, National Institute of Control of Pharmaceutical & Biological Products, 100095.
Positive control: alpha-naphthoflavane, ACras, A0331533.
as §1, §2, §3

Another series concerns the target T6, CCR2 (Homo sapiens, UniProt P41597).
T6 construct: host or cells: HEK293
The series can be described thus: Inhibition test on activity of CCR2 in cells (calcium fluorescence, MCP1 stimulation). The series is classed as cell-based. The settings on record: HEK293 cells stably expressing CCR2, ligand MCP1. The source says: (§4) HEK293 cells that stably express CCR2 and CCR5 receptor proteins were first labeled with calcium ion sensitive fluorescent probe and then stimulated with corresponding ligands (MCP1 and RANTES). After the stimulation, the receptors were activated to trigger the release of the calcium ions from endoplasmic reticulum to cytoplasm. And once the calcium ions were captured by the fluorescent probe, the fluorescent signal could be triggered. The inhibition of compounds on CCR2 and CCR5 can be evaluated by detecting the intensity of the fluorescent signal.
(§5) To each well of the 384-well plates, 2×10^4 HEK293 cells were added and cultured overnight. After being labelled by fluorescent probe, MCP1 and RANTES in different concentrations were added, and the fluorescent signal was read. The fluorescence signal was plotted in relation to the ligand concentration, and according to the four-parameter model, IC50 values were calculated as the ligand concentrations of the CCR2 and CCR5 for the subsequent detection of the compounds.
(§6) By referring to the above results, cells were incubated with the test compound in different concentrations (5000 nM, 1250 nM, 313 nM, 78 nM, 20 nM, 4.8828 nM, 1.2207 nM, 0.3052 nM, 0.0763 nM, and 0.0191 nM), and after MCP1 and RANTES were added thereto, the fluorescent signal was read. The inhibition activity of each concentration group was calculated, wherein the solvent group (not containing the compound) was as the negative control, and the Buffer group (not containing any ligand) was as the blank control: Relative inhibition activity percentage=1−(fluorescent signal of each concentration group-fluorescent signal of the blank group)/(fluorescent signal of the solvent group-fluorescent signal of the blank group)*100%.
(§7) The inhibition activity percentage of each concentration group was plotted in relation to the concentration of the compound, and the curve was fitted according to the four-parameter model, IC50 values were calculated: y=min+(max−min)/(1+(x/IC50)^(−Hillslope))
(§8) wherein y is the relative inhibition activity percentage; max, min are the maximum and minimum values of the fitted curve, respectively; x is the concentration of the compound, and Hillslope is the slope of the curve.

The next series deals with T7, CCR5 (Homo sapiens, UniProt P51681).
T7 construct: host or cells: HEK293
The series can be described thus: Inhibition test on activity of CCR5 in cells (calcium fluorescence, RANTES stimulation). The settings on record: HEK293 cells stably expressing CCR5, ligand RANTES. Format: cell-based.
Text: as §4, §5, §6, §7, §8

T3 sequence (Q12809 whole entry): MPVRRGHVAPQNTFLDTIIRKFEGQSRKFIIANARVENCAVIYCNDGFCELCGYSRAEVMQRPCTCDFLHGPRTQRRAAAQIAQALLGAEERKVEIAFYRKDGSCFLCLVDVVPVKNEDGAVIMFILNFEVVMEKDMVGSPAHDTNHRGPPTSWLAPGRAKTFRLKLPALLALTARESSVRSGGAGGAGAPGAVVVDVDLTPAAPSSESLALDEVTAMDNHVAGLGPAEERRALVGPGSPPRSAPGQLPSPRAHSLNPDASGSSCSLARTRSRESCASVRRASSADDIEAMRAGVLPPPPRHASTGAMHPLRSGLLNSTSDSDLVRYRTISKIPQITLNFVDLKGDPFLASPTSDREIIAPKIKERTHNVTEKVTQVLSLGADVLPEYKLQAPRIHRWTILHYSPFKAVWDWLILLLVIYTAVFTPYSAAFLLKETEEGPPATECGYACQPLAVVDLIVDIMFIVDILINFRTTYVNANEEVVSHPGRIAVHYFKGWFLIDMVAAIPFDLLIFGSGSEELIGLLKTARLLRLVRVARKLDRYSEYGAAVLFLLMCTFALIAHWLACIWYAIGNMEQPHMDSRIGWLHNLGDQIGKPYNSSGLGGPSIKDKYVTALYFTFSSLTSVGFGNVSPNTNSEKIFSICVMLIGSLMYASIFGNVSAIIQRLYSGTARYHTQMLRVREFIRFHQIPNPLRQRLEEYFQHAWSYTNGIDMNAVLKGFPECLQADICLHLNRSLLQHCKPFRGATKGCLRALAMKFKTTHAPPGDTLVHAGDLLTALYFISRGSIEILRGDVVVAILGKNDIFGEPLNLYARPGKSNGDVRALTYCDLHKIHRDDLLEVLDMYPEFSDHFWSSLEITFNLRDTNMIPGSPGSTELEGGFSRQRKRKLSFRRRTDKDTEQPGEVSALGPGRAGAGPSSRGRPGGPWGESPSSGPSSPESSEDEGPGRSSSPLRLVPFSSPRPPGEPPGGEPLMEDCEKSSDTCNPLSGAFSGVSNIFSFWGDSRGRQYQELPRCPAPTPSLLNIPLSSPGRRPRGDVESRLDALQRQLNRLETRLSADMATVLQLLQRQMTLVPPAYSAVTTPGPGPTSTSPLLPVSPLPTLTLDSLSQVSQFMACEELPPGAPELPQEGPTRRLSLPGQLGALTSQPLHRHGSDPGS
T7 sequence (P51681 whole entry): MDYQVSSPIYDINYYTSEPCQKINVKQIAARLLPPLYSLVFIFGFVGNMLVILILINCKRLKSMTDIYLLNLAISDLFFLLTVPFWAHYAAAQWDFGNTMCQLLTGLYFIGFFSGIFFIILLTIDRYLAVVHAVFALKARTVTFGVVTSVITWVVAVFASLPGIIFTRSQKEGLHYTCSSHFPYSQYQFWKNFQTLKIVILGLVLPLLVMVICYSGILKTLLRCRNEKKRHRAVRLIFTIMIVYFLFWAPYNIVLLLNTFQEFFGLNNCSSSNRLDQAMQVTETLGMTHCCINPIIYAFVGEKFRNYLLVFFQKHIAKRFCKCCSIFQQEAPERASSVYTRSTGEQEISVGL
T6 sequence (P41597 whole entry): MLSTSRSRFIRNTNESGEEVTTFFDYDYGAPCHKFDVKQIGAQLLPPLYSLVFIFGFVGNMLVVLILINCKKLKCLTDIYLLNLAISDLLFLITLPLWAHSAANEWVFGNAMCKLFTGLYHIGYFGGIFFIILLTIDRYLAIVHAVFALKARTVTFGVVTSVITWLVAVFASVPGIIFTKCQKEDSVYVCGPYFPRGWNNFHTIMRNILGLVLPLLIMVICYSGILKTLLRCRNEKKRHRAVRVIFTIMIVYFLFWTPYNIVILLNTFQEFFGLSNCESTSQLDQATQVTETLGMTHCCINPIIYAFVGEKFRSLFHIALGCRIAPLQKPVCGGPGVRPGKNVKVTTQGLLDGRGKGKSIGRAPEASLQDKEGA
T4 sequence (P10635 whole entry): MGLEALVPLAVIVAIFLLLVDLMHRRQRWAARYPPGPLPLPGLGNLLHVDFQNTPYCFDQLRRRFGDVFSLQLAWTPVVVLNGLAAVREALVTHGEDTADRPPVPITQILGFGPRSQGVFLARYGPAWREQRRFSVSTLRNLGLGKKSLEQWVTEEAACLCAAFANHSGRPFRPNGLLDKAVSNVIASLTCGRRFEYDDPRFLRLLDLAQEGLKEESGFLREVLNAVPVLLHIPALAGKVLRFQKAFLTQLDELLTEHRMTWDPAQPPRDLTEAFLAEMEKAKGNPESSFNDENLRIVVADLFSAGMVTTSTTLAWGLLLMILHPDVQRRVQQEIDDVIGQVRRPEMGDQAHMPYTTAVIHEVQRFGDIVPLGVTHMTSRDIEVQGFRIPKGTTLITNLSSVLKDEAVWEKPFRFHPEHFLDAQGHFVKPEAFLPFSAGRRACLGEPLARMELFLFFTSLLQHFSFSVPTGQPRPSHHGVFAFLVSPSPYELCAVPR
T2 sequence (P08684 whole entry): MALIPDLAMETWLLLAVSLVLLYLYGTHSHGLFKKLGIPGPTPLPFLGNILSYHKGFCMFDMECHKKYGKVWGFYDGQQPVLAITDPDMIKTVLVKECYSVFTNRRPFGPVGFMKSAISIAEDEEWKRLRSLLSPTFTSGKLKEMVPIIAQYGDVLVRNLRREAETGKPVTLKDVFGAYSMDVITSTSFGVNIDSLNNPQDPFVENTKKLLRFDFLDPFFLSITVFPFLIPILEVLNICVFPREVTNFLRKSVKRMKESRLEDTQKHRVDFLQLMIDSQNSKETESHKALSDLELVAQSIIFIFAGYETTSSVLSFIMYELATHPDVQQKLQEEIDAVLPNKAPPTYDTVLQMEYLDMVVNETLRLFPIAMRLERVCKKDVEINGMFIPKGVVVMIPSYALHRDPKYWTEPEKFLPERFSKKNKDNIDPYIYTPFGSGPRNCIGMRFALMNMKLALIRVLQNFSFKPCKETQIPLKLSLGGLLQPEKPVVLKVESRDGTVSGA
T1 sequence (P08684 whole entry): as above

On to `CCCCOCCOc1ccc(-c2ccc3c(c2)/C=C(/C(=O)Nc2ccc([S@@+]([O-])Cc4cncn4CCC)cc2)CCCN3CC(C)C)cc1` [Cenicriviroc, reference compound], for which the IC50 on CYP 3A4T is 12.7 µM. Besides, the IC50 on CYP 3A4M was 3.43 µM. In addition, in series [1] (liver), the AUClast is 6033 ± 2193 ng·h/g; the peak concentration (Cmax) (commonly the peak of the concentration-time curve) came to 688 ± 229 ng/g; the half-life (as a rule, the time needed for the level to fall by half in the phase considered) was 3.93 ± 1.88 h. Moreover, in series [1] (blood plasma), the AUC(0-t) (in general, the area under the concentration-time curve up to a stated or last time point) was 6330 ± 3440 ng·h/mL; the Cmax was 746 ± 428 ng/mL; the bioavailability (commonly the share of a dose that reaches the circulation, judged against a reference dose that is usually intravenous) was found to be 10.8 ± 3.5%; the half-life was 4.33 ± 0.87 h.
With `CCCCOCCOc1ccc(-c2ccc3c(c2)/C=C(/C(=O)Nc2ccc([S@@+]([O-])Cc4c(C)ncn4CCC)cc2)CCCN3CC(C)(C)C(=O)O)cc1` [Compound 3], the IC50 was over 10 µM in series [2]; over 10 µM on CYP 2D6; 32.3 µM at CYP 3A4T; over 10 µM on CYP 1A2; 13.3 µM at CYP 3A4M; 0.81 nM at CCR2. In addition, on CCR5, the IC50 was determined as 1.48 nM. The compound further showed an AUClast in series [1] (liver) of 386938 ± 30242 ng·h/g. For the same compound, the Kp was about 2340 in series [1] (AUClast liver vs plasma, read-out: exposure in the liver relative to that in the plasma) and about 530 in series [1] (Cmax liver vs plasma, read-out: drug concentration in the liver relative to that in the plasma). Also, the AUC(0-t) in series [1] (blood plasma) was 165 ± 36 ng·h/mL. Besides, the Cmax in series [1] (blood plasma) came out at 49.7 ± 10.6 ng/mL; in series [1] (liver), 26600 ± 200 ng/g. The bioavailability in series [1] (blood plasma) was determined as 20.9 ± 4.5%. The half-life in series [1] (blood plasma) is 1.93 ± 0.37 h; in series [1] (liver), 7.2 ± 0.5 h.
Regarding `CCCCOCCOc1ccc(-c2ccc3c(c2)/C=C(/C(=O)Nc2ccc([S@@+]([O-])Cc4cncn4CCC)cc2)CCCN3CC(C)(C)C(=O)O)cc1` [Compound 1, (S,E)-3-(8-(4-(2-butoxyethoxy)phenyl)-5-((4-(((1-propyl-1H-imidazol-5-yl)methyl)sulfinyl)phenyl)carbamoyl)-3,4-dihydrobenzo[b]azacyclooctatetraen-1(2H)-yl)-2,2-dimethylpropanoic acid], the IC50 at CYP 2D6 is over 10 µM; at CYP 1A2 it was over 10 µM; on CCR2, 0.74 nM; on CCR5 it was 0.33 nM.
For the compound `CCCCOCCOc1ccc(-c2ccc3c(c2)/C=C(/C(=O)Nc2ccc([S+]([O-])Cc4c(C)ncn4CCC)cc2)CCCN3CC(C)(C)C(=O)O)cc1` (stereo not shown) [Compound 2, (E)-3-(8-(4-(2-butoxyethoxy)phenyl)-5-((4-(((4-methyl-1-propyl-1H-imidazol-5-yl)methyl)sulfinyl)phenyl)carbamoyl)-3,4-dihydrobenzo[b]azacyclooctatetraen-1(2H)-yl)-2,2-dimethylpropanoic acid], the IC50 in series [2] was over 10 µM; on CYP 2D6, over 10 µM; at CYP 3A4T it was 62.2 µM; at CYP 1A2, over 10 µM; on CYP 3A4M it was 27.8 µM; on CCR2, 6.38 nM. The IC50 at CCR5 was 3.18 nM.
Turning to `CCCCOCCOc1ccc(-c2ccc3c(c2)/C=C(/C(=O)Nc2ccc([S@+]([O-])Cc4c(C)ncn4CCC)cc2)CCCN3CC(C)(C)C(=O)O)cc1` [Compound 4], the IC50 in series [2] is over 10 µM; on CYP 2D6, over 10 µM; at CYP 3A4T it was 48.3 µM; on CYP 1A2, over 10 µM; on CYP 3A4M, 15.3 µM; at CCR2, 6.12 nM. The IC50 on CCR5 was 2.82 nM.
